The text below walks through data of PMC2919064 (Journal of medicinal chemistry, 2010).

Test [1] relates to BxPC-3 cells. Nature of the test: MTS cell proliferation assay, pancreatic cancer cells. As to conditions: read-out: inhibition of pancreatic cancer cell lines IC50, BxPC-3.
The target of test [2] is T1, HDAC6 (Homo sapiens, UniProt Q9UBN7).
T1 sequence (Q9UBN7 1-1215): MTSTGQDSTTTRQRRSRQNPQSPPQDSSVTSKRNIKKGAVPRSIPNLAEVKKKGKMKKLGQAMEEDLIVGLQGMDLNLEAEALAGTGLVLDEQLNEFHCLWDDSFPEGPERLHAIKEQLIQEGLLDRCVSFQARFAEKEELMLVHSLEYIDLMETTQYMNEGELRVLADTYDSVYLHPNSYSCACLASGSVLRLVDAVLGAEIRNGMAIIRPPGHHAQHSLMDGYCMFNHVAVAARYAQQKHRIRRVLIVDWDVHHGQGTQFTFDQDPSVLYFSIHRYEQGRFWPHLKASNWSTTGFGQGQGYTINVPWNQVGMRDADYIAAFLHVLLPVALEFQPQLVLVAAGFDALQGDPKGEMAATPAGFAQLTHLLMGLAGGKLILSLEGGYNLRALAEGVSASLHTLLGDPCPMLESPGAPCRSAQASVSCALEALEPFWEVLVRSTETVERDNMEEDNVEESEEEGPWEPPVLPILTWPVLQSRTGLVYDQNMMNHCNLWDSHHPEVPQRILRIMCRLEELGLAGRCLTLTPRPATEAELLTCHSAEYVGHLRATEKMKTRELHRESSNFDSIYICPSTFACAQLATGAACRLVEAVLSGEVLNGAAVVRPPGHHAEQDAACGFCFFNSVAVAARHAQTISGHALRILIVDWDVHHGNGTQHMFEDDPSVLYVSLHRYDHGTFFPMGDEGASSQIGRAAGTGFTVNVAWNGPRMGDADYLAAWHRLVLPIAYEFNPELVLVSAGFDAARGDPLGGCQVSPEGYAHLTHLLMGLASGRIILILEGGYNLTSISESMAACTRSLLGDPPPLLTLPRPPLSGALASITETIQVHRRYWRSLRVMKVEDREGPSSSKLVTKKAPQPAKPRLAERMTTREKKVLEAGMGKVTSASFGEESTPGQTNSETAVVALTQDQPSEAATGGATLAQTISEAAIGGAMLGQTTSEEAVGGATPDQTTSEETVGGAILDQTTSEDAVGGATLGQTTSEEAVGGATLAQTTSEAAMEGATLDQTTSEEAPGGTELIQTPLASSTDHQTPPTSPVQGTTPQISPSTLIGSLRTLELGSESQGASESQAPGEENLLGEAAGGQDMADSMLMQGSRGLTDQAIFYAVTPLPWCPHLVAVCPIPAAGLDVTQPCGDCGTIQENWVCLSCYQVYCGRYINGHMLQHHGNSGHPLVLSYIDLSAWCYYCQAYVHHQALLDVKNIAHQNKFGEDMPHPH
Put plainly: HDAC isoform inhibition assay.

The subject of test [3] is MiaPaca-2 cells. Put plainly: MTS cell proliferation assay, pancreatic cancer cells. As to conditions: read-out: inhibition of pancreatic cancer cell lines IC50, Mia Paca-2. For orientation: Tetrazolium assays rely on reduction of a dye to a coloured formazan, in cell work by metabolically active cells.
In test [4] the test system is HupT3 cells. The test is described as above. As to conditions: read-out: inhibition of pancreatic cancer cell lines IC50, Hup T3.
The target in test [5] is HDAC1 (Homo sapiens, UniProt Q13547). Nature of the test: HDAC isoform inhibition assay.
Sequence of HDAC1 (Q13547 whole entry, canonical isoform): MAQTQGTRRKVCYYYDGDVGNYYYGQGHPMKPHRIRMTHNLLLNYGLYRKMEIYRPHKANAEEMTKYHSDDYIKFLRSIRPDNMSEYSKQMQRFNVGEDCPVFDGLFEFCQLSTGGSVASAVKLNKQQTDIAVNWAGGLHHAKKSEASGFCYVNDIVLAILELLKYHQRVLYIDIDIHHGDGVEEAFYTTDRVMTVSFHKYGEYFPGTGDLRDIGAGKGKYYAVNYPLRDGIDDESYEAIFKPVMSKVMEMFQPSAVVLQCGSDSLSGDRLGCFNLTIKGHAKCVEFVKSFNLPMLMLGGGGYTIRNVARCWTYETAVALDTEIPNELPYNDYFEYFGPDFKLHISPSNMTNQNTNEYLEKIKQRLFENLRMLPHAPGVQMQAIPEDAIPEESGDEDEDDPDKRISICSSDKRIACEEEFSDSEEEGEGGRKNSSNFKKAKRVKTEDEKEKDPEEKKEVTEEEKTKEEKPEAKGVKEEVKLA
Test [6] relates to SU86.86 cells. Put plainly: MTS cell proliferation assay, pancreatic cancer cells. As to conditions: read-out: inhibition of pancreatic cancer cell lines IC50, SU 86.86.
The test system of test [7] is Panc04.03 cells. Described as above. The settings on record: read-out: inhibition of pancreatic cancer cell lines IC50, Panc 04.03.
Test [8] has as its target HDAC3 (Homo sapiens, UniProt O15379). Put plainly: HDAC isoform inhibition assay.
For test [9], the system named is Panc04.03 cells. Nature of the test: Cell cycle analysis by flow cytometry. It is filed as cell-based. As to conditions: 5 µM for 24 h, vs vehicle (DMSO). (In general: In flow cytometry, cells or beads pass a laser one at a time.)
Test [10] has as its system p21 in BXPC-3 cell line. Put plainly: Immunoblot of CDK inhibitor p21 expression. It is filed as cell-based. As to conditions: 5 µM for 18 h, vs vehicle (DMSO). (A western blot detects proteins with antibodies after separation by electrophoresis.)
In test [11] the test system is SU86.86 and Panc04.03 xenografts. Put plainly: Xenograft tumor model, SU86.86 and Panc04.03, immunoblot of tumor proteins. The test is classed as in vivo, mouse.
The target in test [12] is HDAC2 (Homo sapiens, UniProt Q92769). Put plainly: HDAC isoform inhibition assay.
Sequence of HDAC2 (Q92769 whole entry, canonical isoform): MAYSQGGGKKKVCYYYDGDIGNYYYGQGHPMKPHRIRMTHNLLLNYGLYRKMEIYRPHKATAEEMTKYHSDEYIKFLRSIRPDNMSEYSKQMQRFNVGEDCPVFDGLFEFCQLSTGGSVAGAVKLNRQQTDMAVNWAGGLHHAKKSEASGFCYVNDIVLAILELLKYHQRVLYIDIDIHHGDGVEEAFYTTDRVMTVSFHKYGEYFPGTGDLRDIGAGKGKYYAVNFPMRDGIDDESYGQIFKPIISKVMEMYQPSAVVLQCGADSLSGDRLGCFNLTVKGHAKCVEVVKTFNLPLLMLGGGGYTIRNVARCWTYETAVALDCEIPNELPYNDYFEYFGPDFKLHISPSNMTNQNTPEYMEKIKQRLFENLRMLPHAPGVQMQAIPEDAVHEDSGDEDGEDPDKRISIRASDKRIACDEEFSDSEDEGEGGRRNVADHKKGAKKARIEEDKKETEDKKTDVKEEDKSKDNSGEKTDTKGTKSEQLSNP
The target in test [13] is T2, HDAC10 (Homo sapiens, UniProt Q969S8).
T2 sequence (Q969S8 1-669): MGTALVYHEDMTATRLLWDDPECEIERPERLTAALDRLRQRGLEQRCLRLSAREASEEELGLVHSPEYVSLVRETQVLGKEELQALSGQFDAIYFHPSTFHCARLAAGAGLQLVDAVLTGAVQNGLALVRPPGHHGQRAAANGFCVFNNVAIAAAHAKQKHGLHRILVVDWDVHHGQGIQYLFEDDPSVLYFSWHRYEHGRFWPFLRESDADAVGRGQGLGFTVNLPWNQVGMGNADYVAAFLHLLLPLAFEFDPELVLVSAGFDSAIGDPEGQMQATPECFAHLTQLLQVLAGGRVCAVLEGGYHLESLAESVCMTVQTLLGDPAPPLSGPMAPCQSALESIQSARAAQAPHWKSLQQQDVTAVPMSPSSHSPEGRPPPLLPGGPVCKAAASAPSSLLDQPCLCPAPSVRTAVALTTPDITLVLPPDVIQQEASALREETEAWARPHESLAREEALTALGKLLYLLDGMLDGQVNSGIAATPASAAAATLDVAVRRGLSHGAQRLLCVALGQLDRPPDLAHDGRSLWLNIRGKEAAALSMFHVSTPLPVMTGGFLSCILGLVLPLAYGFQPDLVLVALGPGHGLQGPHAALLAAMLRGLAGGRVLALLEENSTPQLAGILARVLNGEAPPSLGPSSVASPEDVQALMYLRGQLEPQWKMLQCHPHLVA
Put plainly: HDAC isoform inhibition assay.

Test [14] has as its target T3, HDAC8 (Homo sapiens, UniProt Q9BY41).
T3 sequence (Q9BY41 1-377): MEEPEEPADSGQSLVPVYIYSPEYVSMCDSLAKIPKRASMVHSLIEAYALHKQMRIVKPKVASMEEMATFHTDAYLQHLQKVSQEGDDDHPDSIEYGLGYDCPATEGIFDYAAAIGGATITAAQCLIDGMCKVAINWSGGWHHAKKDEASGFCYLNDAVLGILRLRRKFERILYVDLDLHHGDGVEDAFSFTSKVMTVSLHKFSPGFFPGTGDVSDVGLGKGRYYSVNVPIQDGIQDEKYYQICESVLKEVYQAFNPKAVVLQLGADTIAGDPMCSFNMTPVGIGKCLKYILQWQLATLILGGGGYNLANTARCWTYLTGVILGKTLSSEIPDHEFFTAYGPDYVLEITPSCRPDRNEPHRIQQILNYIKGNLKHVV
Nature of the test: HDAC isoform inhibition assay.

Where two headings read alike, the source gives them in different places.

Sequence of HDAC3 (O15379 whole entry, canonical isoform): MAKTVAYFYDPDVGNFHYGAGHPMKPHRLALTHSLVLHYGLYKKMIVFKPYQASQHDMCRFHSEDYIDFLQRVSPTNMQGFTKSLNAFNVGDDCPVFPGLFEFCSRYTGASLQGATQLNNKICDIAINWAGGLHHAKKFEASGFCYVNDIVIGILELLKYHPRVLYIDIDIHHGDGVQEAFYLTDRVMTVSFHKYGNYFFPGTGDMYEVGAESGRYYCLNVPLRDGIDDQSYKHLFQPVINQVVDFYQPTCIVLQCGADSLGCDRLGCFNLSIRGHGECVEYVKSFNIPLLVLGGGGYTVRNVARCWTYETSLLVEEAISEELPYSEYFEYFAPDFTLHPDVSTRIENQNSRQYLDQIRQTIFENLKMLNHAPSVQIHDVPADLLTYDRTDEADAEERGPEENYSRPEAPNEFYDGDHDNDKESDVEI
Sequence of HDAC3 (Q9Y618 395-489 partner limits assumed): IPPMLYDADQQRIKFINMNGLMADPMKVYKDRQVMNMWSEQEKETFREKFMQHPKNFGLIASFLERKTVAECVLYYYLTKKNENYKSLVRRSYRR

By IC50 is commonly meant the concentration that inhibits the measured activity by half. Turning to `O=C(CCCCCCC(=O)Nc1cccc(-c2cn(-c3ccc(CO)cc3)nn2)c1)NO` [4f, Octanedioic acid hydroxyamide {3-[1-(4-hydroxymethylphenyl)-1H-[1,2,3]triazol-4-yl]phenyl}amide], the IC50 in test [1] (Homo sapiens, BXPC-3, 72 h) amounted to 1000 nM; in test [2], 7.6 nM; in [3] (Homo sapiens, MIA PaCa-2, 72 h), 200 nM; in test [4] (Homo sapiens, HuP-T3, 72 h), 200 nM; in test [5], 3.04 nM; in test [6] (Homo sapiens, SU.86.86, 72 h), 1000 nM. Besides, the IC50 in [7] (Homo sapiens, Panc 04.03, 72 h) is 1000 nM.

Turning to `COc1ccc(-n2cc(-c3cccc(NC(=O)CCCCCCC(=O)NO)c3)nn2)cc1F` [4h, Octanedioic acid {3-[1-(3-fluoro-4-methoxyphenyl)-1H-[1,2,3]-triazol-4-yl]phenyl}amide hydroxyamide], the IC50 in [1] (Homo sapiens, BXPC-3, 72 h) was 200 nM; in test [2], 3.85 nM; in [8] it was 3.39 nM; in [3] (Homo sapiens, MIA PaCa-2, 72 h) it was 100 nM; in [4] (Homo sapiens, HuP-T3, 72 h), 50 nM; in [5] it was 5.06 nM. Moreover, the IC50 in test [6] (Homo sapiens, SU.86.86, 72 h) was determined as 1000 nM; in test [7] (Homo sapiens, Panc 04.03, 72 h), 100 nM.

With `O=C(CCCCCCC(=O)Nc1ccccc1)NO` [SAHA (1a), suberoylanilide hydroxamic acid, reference compound], in test [4] (Homo sapiens, HuP-T3, 72 h), the IC50 was 800 nM.

On to `O=C(CCCCCCC(=O)Nc1cccc(-c2cn(-c3ccccc3)nn2)c1)NO` [compound 4a, octanedioic acid hydroxyamide[3-(1-phenyl-1H-[1,2,3]triazol-4-yl)phenyl]amide], for which, in test [9], the “effect on cell cycle profile” value is “loss of S-phase cells and an increase in the percentage of cells in G1”. Moreover, the “expression of p21 protein” value in [10] was “increased expression of p21”. Also, the “expression of CDK inhibitors p15, p16, p21, p27 and p57 in xenograft tumors” value in [11] (10 and 100 mg/kg i.p. every 12 h for 48 h, athymic nude mice) is “re-activated”. Moreover, the “pancreatic cancer cell growth in vivo” value in test [11] (pancreatic tumor cell line xenografts, preliminary in vivo evaluation) is on record as “suppresses pancreatic cancer cell growth in vivo”. In test [7] (Homo sapiens, Panc 04.03, 72 h), the IC50 was less than 500 nM.

On to `O=C(CCCCCCC(=O)Nc1cccc(-c2cn(C3CCCCC3)nn2)c1)NO` [compound 4j, Octanedioic acid [3-(1-cyclohexyl-1H-[1,2,3]triazol-4-yl)phenyl]amide hydroxyamide], for which, in test [12], the “fold more potent than compound 4a, HDAC2” value is listed as 2- to 3 fold. The “fold more potent than compound 4a, HDAC6” value in test [2] (ratio of IC50 vs 4a) is on record as 2- to 3 fold. Also, in [8], the “fold more potent than compound 4a, HDAC3” value is reported as 2- to 3 fold. Besides, the “fold more potent than compound 4a, HDAC10” value in [13] (ratio of IC50 vs 4a) was 2- to 3 fold. Moreover, in [14] (ratio of IC50 vs 4a), the “fold more potent than compound 4a, HDAC8” value was 2- to 3 fold. Further, the “fold more potent than compound 4a, HDAC1” value in test [5] (ratio of IC50 vs 4a) is 2- to 3 fold.

As for “Octanedioic acid (2-aminophenyl)amide [3-(1-phenyl-1H-[1,2,3] triazol-4-yl)phenyl]amide [12a]”, the IC50 in test [1] (72 h post treatment) was more than 50000 nM; in [2] (read-out: IC50 HDAC6, tested at Nanosyn, 17 hours at 25 °C) it was more than 30000 nM; in [8] (read-out: IC50 HDAC3), 122 ± 9 nM; in [13] (read-out: IC50 HDAC10, tested at Nanosyn, 17 hours at 25 °C), more than 30000 nM; in [3] (72 h post treatment), more than 50000 nM; in [14] (read-out: IC50 HDAC8, tested at Nanosyn, 17 hours at 25 °C), more than 30000 nM. The IC50 in test [4] (72 h post treatment) was more than 50000 nM; in test [6] (72 h post treatment), 32000 nM; in test [7] (72 h post treatment), more than 50000 nM.
